Reference: patent publication US20050112573A1, “Method of detecting toxic substance” (priority 2001, published 2005)
Like-named read-outs stand apart in the source and are kept apart here.

Assays:
Format in all cases: cell-based, Saccharomyces cerevisiae W303
[1] = system: promoter of yeast gene YLR303w; conditions: SC-YCR303W-pQBI cells (so in the source); summary of Table 14
Text: (§1) The inventors of the present application understood that the induction of certain yeast genes by toxic substances is caused by the activation of the promoters of the genes by the toxic substances. Thus, the inventors prepared a vector that comprised a polynucleotide sequence comprising the promoter of the yeast gene, which sequence is operably linked to a polynucleotide encoding a marker protein; and transformed yeast cells with the vector. […] The working examples hereinafter illustrate the preparation of such vectors, transformation of yeast cells by use of said vectors, and the detection of toxic substances by use of the transformed cells.
(§2) Promoter assay is a method for determining variations of the level of intracellular genes without destroying cells on the basis of the level of expressed marker genes instead of the expressed mRNA. The gene selected to detect a chemical substance is expressed in the absence of chemical substances, and thus a marker protein also occurs in the absence of chemical substances. In the method according to the present invention, the behavior of yeast genes on the addition of test materials is determined on the basis of the level of expressed marker protein so that the presence or the absence, and the kind of toxic chemical substances are predicted. Thus, it is desired that the production of marker proteins is lower in the absence of chemical substances, and the production of marker proteins is higher in the presence of chemical substances.
(§3) Type YEp shuttle vector pYES2 (pYES2, Cat no: V825-20, Invirtogen Corporation, USA), which can be replicated both in E. coli. and yeast was used as vector (R. W. Old, S. B. Primrose Principles of Gene Manipulation 5th Ed., BAIFUKAN CO., LTD, pp138-165, pp.234-263, 2000). The portion of vector pQBI 63 (Cat no.54-0082, Wako Pure Chemical Industries, Ltd.) corresponding to a marker protein GFP was used as the polynucleotide encoding GFP (SEQ ID No: 6). First, the GFP polynucleotide was inserted into the multiple cloning sites of pYES2 to give a vector. Thereafter, the GAL1 promoter of pYES2 was replaced with the polynucleotide comprising the promoter sequence of the intended yeast gene YLR303w (SEQ ID No: 5) to give an intended plasmid vector. Suitable restriction enzymes were selected, and the insertion of the polynucleotide comprising GFP and the promoter sequence was conducted.
(§4) Next, the yeast Saccharomyces cerevisiae W303 was transformed with the resultant plasmid vector according to the following procedures: • 1) Incubating the yeast Saccharomyces cerevisiae W303 in 200 ml of SD medium under shaking until OD 660 reaches 0.5; • 2) Suspending the collected cells in 5 ml of TE-buffer; • 3) Adding 250 μL of 2.5M lithium acetate; • 4) Dispending each 300 μl, adding 10 μl of above plasmid vector thereto, then incubating the suspensions at 30° C. for 30 minutes; • 5) Adding 700 μl of 50% PEG4000, and incubating the mixture under shaking at 30° C. for 60 minutes; • 6) Giving heat shock (42° C., 5 minutes), and then immediately cooling the mixture; • 7) Washing the mixture twice with 1M sorbitol; and • 8) Seeding it on agar plates made of minimum essential medium.
(§5) The cells of SC-YCR303W-pQBI as prepared in Example 6 were contacted to one of the following compounds. The yeast cells SC-YCR303W-pQBI were incubated at 25° C. in SD medium (Yeast nitrogen base without amino acids (Difco 0919-15)+glucose+amino acids (adenine, histidine, tryptophan)). One of toxic chemical substances as shown below was added to the cells at logarithmic growth phase, and then the cells were further incubated for two hours.

[2] = system: promoter of yeast gene YLL057c; conditions: SC-YLL057C-pQBI cells; summary of Table 13
Text: as §1, §2
as §3, with “PQBI” for “pQBI”, “GALL” for “GAL1”, “YLL057c” for “YLR303w”, “4)” for “5)”
as §4
as §5, with “SC-YLL057C-pQBI” for “SC-YCR303W-pQBI”, “5” for “6”

[3] = system: promoter of yeast gene YOR382w
Text: as §1, §2
as §3, with “YOR382w” for “YLR303w”, “3)” for “5)”
as §4
as §5, with “SC-YOR382W-pQBI” for “SC-YCR303W-pQBI”, “4” for “6”

[4] = SC-YOR382W-pQBI cells, summary of Table 12

Q: Which results are given for `O=C(O)COc1ccc(Cl)cc1Cl` [2,4-dichlorophenoxyacetic acid]?
A: expression of GFP [1]: induced the expression of GFP; expression of GFP [2]: induced the expression of GFP; expression of GFP [3, 4]: induced the expression of GFP

Q: How did the “expression of GFP” value [1] turn out when `c1ccc2c(c1)cc1ccc3cccc4ccc2c1c34` [benzo(a)pyrene] was run?
A: The value was “induced the expression of GFP”.

Q: With `CCCCCCCCCc1ccc(O)cc1` [p-nonylphenol] as the compound, how does the “expression of GFP” value [3, 4] read?
A: The value was “induced the expression of GFP”.

Q: How did the “expression of GFP” value [3] turn out when `Oc1ccccc1` [phenol] was run?
A: Its value is “induced the expression of GFP”.
